The record followed here is patent publication US11472799B2, “Serine threonine kinase (AKT) degradation / disruption compounds and methods of use” (Icahn School of Medicine at Mount Sinai, priority 2018, dated 2022).

This test concerns AKT. The test is described as follows: Western blot of AKT protein levels and downstream signaling in BT474 cells. The note with it: Western blot (FIGS. 1, 3, 4). The class given is cell-based, human. As to the method: PC-3, U87MG, HCC1143, MDA-MB-231, MDA-MB-468, BT474 and MCF-7 cell lines were purchased from ATCC. Cell lines were regularly tested in the lab for mycoplasma. All cells were cultured at 37° C. and 5% CO2. PC-3, U87MG, MDA-MB-231, MCF-7 and BT474 cells were cultured in 1×DMEM (Corning, 10-013-CV) with 10% fetal bovine serum (Atlanta Biologicals S11150) and 1× Penicillin/Streptomycin. HCC1143 cells were cultured in RPMI (Corning, 10-040-CV) medium with 10% fetal bovine serum (Atlanta Biologicals S11150) and 1× Penicillin/Streptomycin. Cells were split using 0.05% or 0.25% trypsin (Corning 25-051-Cl or 25-053-Cl, respectively) before they reached full confluence and media was changed every 3-4 days. Cells were treated with compounds individually at different concentrations for 24 hrs. Cells were treated with DMSO, VHL, or PML alone as controls.
Cells were lysed in 2× sample buffer (125 mM Tris-HCl at pH 6.8, 10% βME, 2% SDS, 20% glycerol, 0.05% Bromophenol Blue, 8 M urea). Protein lysates were loaded into 4-12% Bis-Tris gels and resolved by electrophoresis. Samples were then blotted on PVDF membrane (Millipore IPVH00010) using the wet transfer technique (Invitrogen). Membranes were blocked in 5% milk-TBST for 1 hour, washed in TBST for 10 min, and incubated in primary antibody in 5% milk-TBST or 5% BSA-TBST at 4° C. for 16 h. Membranes were rinsed (3×6 min) in TBST and incubated in horseradish peroxidase-conjugated secondary antibodies in 5% milk-TBST for 1 hour and rinsed again in TBST (3×6 min). Membranes were visualized using the chemiluminescence system (Thermo 34080, 37075) on autoradiography film (Denville E3018). Primary Antibodies: R-actin (Sigma A5316), p-AKT (Ser473 CST-9721), total AKT (CST-9272), p-S6 (Ser240/244, CST-5364), p-PRAS40 (Thr246, CST-2997). Secondary Antibodies: Mouse (Thermo 31432), Rabbit (Thermo 31460).
Consider `C[C@@H]1C[C@@H](O)c2ncnc(N3CCN(C(=O)[C@H](CNCCNC(=O)CCOCCOCCOCCOCCNc4cccc5c4C(=O)N(C4CCC(=O)NC4=O)C5=O)c4ccc(Cl)cc4)CC3)c21` (stereo partly drawn) [XF048-3, N-(2-(((S)-2-(4-chlorophenyl)-3-(4-((5R,7R)-7-hydroxy-5-methyl-6,7-dihydro-5H-cyclopenta[d]pyrimidin-4-yl)piperazin-1-yl)-3-oxopropyl)amino)ethyl)-1-((2-(2,6-dioxopiperidin-3-yl)-1,3-dioxoisoindolin-4-yl)amino)-3,6,9,12-tetraoxapentadecan-15-amide], for which the “suppression of AKT protein level and AKT activity” value (“suppression” for short) was “effective in suppressing both AKT protein level and AKT activity”. For `Cc1ncsc1-c1ccc(CNC(=O)[C@@H]2C[C@@H](O)CN2C(=O)[C@@H](NC(=O)CCCCCCCCCCCCC(=O)N2CCN(CC[C@H](NC(=O)C3(N)CCN(c4ncnc5[nH]ccc45)CC3)c3ccc(Cl)cc3)CC2)C(C)(C)C)cc1` [XF050-145, 4-amino-N-((S)-1-(4-chlorophenyl)-3-(4-(14-(((S)-1-((2S,4R)-4-hydroxy-2-((4-(4-methylthiazol-5-yl)benzyl)carbamoyl)pyrrolidin-1-yl)-3,3-dimethyl-1-oxobutan-2-yl)amino)-14-oxotetradecanoyl)piperazin-1-yl)propyl)-1-(7H-pyrrolo[2,3-d]pyrimidin-4-yl)piperidine-4-carboxamide], the “suppression” value is “effective in suppressing both AKT protein level and AKT activity”.

For `C[C@@H]1C[C@@H](O)c2ncnc(N3CCN(C(=O)[C@H](CNCCC(=O)NCCOCCOCCOCCOCCNc4cccc5c4C(=O)N(C4CCC(=O)NC4=O)C5=O)c4ccc(Cl)cc4)CC3)c21` (stereo partly drawn) [XF038-176A, 3-(((S)-2-(4-chlorophenyl)-3-(4-((5R,7R)-7-hydroxy-5-methyl-6,7-dihydro-5H-cyclopenta[d]pyrimidin-4-yl)piperazin-1-yl)-3-oxopropyl)amino)-N-(14-((2-(2,6-dioxopiperidin-3-yl)-1,3-dioxoisoindolin-4-yl)amino)-3,6,9,12-tetraoxatetradecyl)propanamide], the “suppression” value is “effective in suppressing both AKT protein level and AKT activity”. Turning to `Cc1ncsc1-c1ccc([C@H](C)NC(=O)[C@@H]2C[C@@H](O)CN2C(=O)[C@@H](NC(=O)CCCCCCCCCC(=O)N2CCN(CC[C@H](NC(=O)C3(N)CCN(c4ncnc5[nH]ccc45)CC3)c3ccc(Cl)cc3)CC2)C(C)(C)C)cc1` [XF050-167, 4-amino-N-((S)-1-(4-chlorophenyl)-3-(4-(11-(((S)-1-((2S,4R)-4-hydroxy-2-(((S)-1-(4-(4-methylthiazol-5-yl)phenyl)ethyl)carbamoyl)pyrrolidin-1-yl)-3,3-dimethyl-1-oxobutan-2-yl)amino)-11-oxoundecanoyl)piperazin-1-yl)propyl)-1-(7H-pyrrolo[2,3-d]pyrimidin-4-yl)piperidine-4-carboxamide], the “suppression” value is “effective in suppressing both AKT protein level and AKT activity”.

For the compound `C[C@@H]1C[C@@H](O)c2ncnc(N3CCN(C(=O)[C@H](CNCCC(=O)NCCOCCOCCOCCNc4cccc5c4C(=O)N(C4CCC(=O)NC4=O)C5=O)c4ccc(Cl)cc4)CC3)c21` (stereo partly drawn) [XF048-8, 3-(((S)-2-(4-chlorophenyl)-3-(4-((5R,7R)-7-hydroxy-5-methyl-6,7-dihydro-5H-cyclopenta[d]pyrimidin-4-yl)piperazin-1-yl)-3-oxopropyl)amino)-N-(2-(2-(2-(2-((2-(2,6-dioxopiperidin-3-yl)-1,3-dioxoisoindolin-4-yl)amino)ethoxy)ethoxy)ethoxy)ethyl)propanamide], the “suppression” value was “effective in suppressing both AKT protein level and AKT activity”. For `Cc1ncsc1-c1ccc(CNC(=O)[C@@H]2C[C@@H](O)CN2C(=O)[C@@H](NC(=O)CCCCCCCC(=O)N2CCN(CC[C@H](NC(=O)C3(N)CCN(c4ncnc5[nH]ccc45)CC3)c3ccc(Cl)cc3)CC2)C(C)(C)C)cc1` [XF050-19, 4-amino-N-((S)-1-(4-chlorophenyl)-3-(4-(9-(((S)-1-((2S,4R)-4-hydroxy-2-((4-(4-methylthiazol-5-yl)benzyl)carbamoyl)pyrrolidin-1-yl)-3,3-dimethyl-1-oxobutan-2-yl)amino)-9-oxononanoyl)piperazin-1-yl)propyl)-1-(7H-pyrrolo[2,3-d]pyrimidin-4-yl)piperidine-4-carboxamide], the “suppression” value was “effective in suppressing both AKT protein level and AKT activity”. In the case of `C[C@@H]1C[C@@H](O)c2ncnc(N3CCN(C(=O)[C@H](CNCCNC(=O)CCOCCOCCOCCOCCOCCNc4cccc5c4C(=O)N(C4CCC(=O)NC4=O)C5=O)c4ccc(Cl)cc4)CC3)c21` (stereo partly drawn) [XF048-4, N-(2-(((S)-2-(4-chlorophenyl)-3-(4-((5R,7R)-7-hydroxy-5-methyl-6,7-dihydro-5H-cyclopenta[d]pyrimidin-4-yl)piperazin-1-yl)-3-oxopropyl)amino)ethyl)-1-((2-(2,6-dioxopiperidin-3-yl)-1,3-dioxoisoindolin-4-yl)amino)-3,6,9,12,15-pentaoxaoetadecan-18-amide] it was “effective in suppressing both AKT protein level and AKT activity”; in that of `Cc1ncsc1-c1ccc(CNC(=O)[C@@H]2C[C@@H](O)CN2C(=O)[C@@H](NC(=O)COCC(=O)N2CCN(CC[C@H](NC(=O)C3(N)CCN(c4ncnc5[nH]ccc45)CC3)c3ccc(Cl)cc3)CC2)C(C)(C)C)cc1` [XF050-5, 4-amino-N-((S)-1-(4-chlorophenyl)-3-(4-(2-(2-(((S)-1-((2S,4R)-4-hydroxy-2-((4-(4-methylthiazol-5-yl)benzyl)carbamoyl)pyrrolidin-1-yl)-3,3-dimethyl-1-oxobutan-2-yl)amino)-2-oxoethoxy)acetyl)piperazin-1-yl)propyl)-1-(7H-pyrrolo[2,3-d]pyrimidin-4-yl)piperidine-4-carboxamide], “effective in suppressing both AKT protein level and AKT activity”; in that of `NC1(C(=O)N[C@@H](CCN2CCN(C(=O)CCOCCOCCOCCOCCOCCOCCOCCOCCNc3cccc4c3C(=O)N(C3CCC(=O)NC3=O)C4=O)CC2)c2ccc(Cl)cc2)CCN(c2ncnc3[nH]ccc23)CC1` (stereo partly drawn) [XF056-34, 4-amino-N-((1S)-1-(4-chlorophenyl)-3-(4-(1-((2-(2,6-dioxopiperidin-3-yl)-1,3-dioxoisoindolin-4-yl)amino)-3,6,9,12,15,18,21,24-octaoxaheptacosan-27-oyl)piperazin-1-yl)propyl)-1-(7H-pyrrolo[2,3-d]pyrimidin-4-yl)piperidine-4-carboxamide], “effective in suppressing both AKT protein level and AKT activity”. With `C[C@@H]1C[C@@H](O)c2ncnc(N3CCN(C(=O)[C@H](CNCCC(=O)NCCCCCCCCOc4cccc5c4C(=O)N(C4CCC(=O)NC4=O)C5=O)c4ccc(Cl)cc4)CC3)c21` (stereo partly drawn) [XF050-133, 3-(((S)-2-(4-chlorophenyl)-3-(4-((5R,7R)-7-hydroxy-5-methyl-6,7-dihydro-5H-cyclopenta[d]pyrimidin-4-yl)piperazin-1-yl)-3-oxopropyl)amino)-N-(8-((2-(2,6-dioxopiperidin-3-yl)-1,3-dioxoisoindolin-4-yl)oxy)octyl)propanamide], the “suppression” value is “effective in suppressing both AKT protein level and AKT activity”. With `Cc1ncsc1-c1ccc(CNC(=O)[C@@H]2C[C@@H](O)CN2C(=O)[C@@H](NC(=O)CCCCCCCCCCCC(=O)N2CCN(CC[C@H](NC(=O)C3(N)CCN(c4ncnc5[nH]ccc45)CC3)c3ccc(Cl)cc3)CC2)C(C)(C)C)cc1` [XF050-144, 4-amino-N-((S)-1-(4-chlorophenyl)-3-(4-(13-(((S)-1-((2S,4R)-4-hydroxy-2-((4-(4-methylthiazol-5-yl)benzyl)carbamoyl)pyrrolidin-1-yl)-3,3-dimethyl-1-oxobutan-2-yl)amino)-13-oxotridecanoyl)piperazin-1-yl)propyl)-1-(7H-pyrrolo[2,3-d]pyrimidin-4-yl)piperidine-4-carboxamide], the “suppression” value was “effective in suppressing both AKT protein level and AKT activity”. For the compound `C[C@@H]1C[C@@H](O)c2ncnc(N3CCN(C(=O)[C@H](CNCCC(=O)NCCOCCOCCNc4cccc5c4C(=O)N(C4CCC(=O)NC4=O)C5=O)c4ccc(Cl)cc4)CC3)c21` (stereo partly drawn) [XF048-7, 3-(((S)-2-(4-chlorophenyl)-3-(4-((5R,7R)-7-hydroxy-5-methyl-6,7-dihydro-5H-cyclopenta[d]pyrimidin-4-yl)piperazin-1-yl)-3-oxopropyl)amino)-N-(2-(2-(2-((2-(2,6-dioxopiperidin-3-yl)-1,3-dioxoisoindolin-4-yl)amino)ethoxy)ethoxy)ethyl) propanamide], the “suppression” value is “effective in suppressing both AKT protein level and AKT activity”.
